Test results taken from BindingDB's records for doi:10.1016/j.bmc.2005.05.065 (National Taiwan University, 2005).

Target: Replicase polyprotein 1ab (Severe acute respiratory syndrome coronavirus, UniProt P0C6X7)
Assay: SARS-CoV 3CL Protease Inhibition Assay
Details: pH 7; 25 °C
Experimental: The effects of compound on enzyme activity were measured by using a fluorogenic peptide cleavage assay. Enhanced fluorescence caused by cleavage of the substrate peptide was monitored at 538 nm with excitation at 355 nm. The Ki measurements were performed at two fixed inhibitor concentrations and various substrate concentrations.

CCOC(=O)/C=C/[C@H](C[C@@H]1CCNC1=O)NC(=O)[C@@H](CC(=O)[C@@H](NC(=O)c1cc(C)on1)C(C)C)Cc1ccc(F)cc1 [ethyl (2E,4S)-4-[((2R,5S)-2-(4-fluorobenzyl)-6-methyl-5-{[(5-methylisoxazol-3-yl)carbonyl]amino}-4-oxoheptanoyl)amino]-5-[(3S)-2-oxopyrrolidin-3-yl]pent-2-enoate]
IC50: > 100 µM
